# Columns and labels:
# [1] = system: choroidal neovascularization (CNV); assay: Laser-induced CNV model, fluorescein angiography evaluation of leaky CNV; type: in vivo, Long Evans rats; conditions: for incidence of developing leaky CNV 2 weeks after laser photocoagulation: vehicle 83%
# Procedure: (§1) Thermal laser infrared light (diode laser 810 nm) at 200 mW for 0.075 seconds was delivered to the fundus of Long Evans rats using a slit lamp and a slit lamp adaptor. A total of 6 lesions with 75 μm diameter were placed in a circular pattern surrounding the optic disc on the posterior pole.
# (§2) Intravitreal injection was performed immediately after laser photocoagulation. Briefly, three days prior to the injection, 0.3% Ciloxan ointment was applied to the eye once daily. At the time of injection, the eye pocket was irrigated and the conjunctiva swabbed with 1.0% Betadine solution. A 30-gauge needle connected to a 10-μL Hamilton syringe that contained 5 μL carboxymethylcellulose (CMC)-based Rapamycin suspension (0.5, 5, 10 or 40 mg/mL) or CMC vehicle alone was inserted 1 mm posterior to the corneoscleral limbus. The injection began when the bevel of the needle faced down and reached the vitreous about 1-2 mm in depth with the visual aid of a dissecting microscope. After injection, topical 0.3% Ciloxan ointment was applied to the eye once daily for 2 days.
# FA was performed on the 14th day after intravitreal injection of Rapamycin. Briefly, a 25-gauge butterfly catheter was placed in the tail vein on an anesthetized animal and a Heparin-Lock solution (0.50 mL of 10,000 IU/mL Heparin Sodium with 0.95 mL 0.9% Saline) was used to fill the catheter line to maintain intravenous access. A dose of 10 mg/kg of Diofluor 10% (Fluorescein Sodium 10%) was delivered through the tail vein, followed by a flush of sterile saline to ensure full delivery of Diofluor 10%. An infusion pump (Becton-Dickinson) connected to a 60 cc syringe was used to infuse the Diofluor 10% at a constant rate of 6 mL/min (8.4-13.2 pounds per square inches) to allow for consistency in the synchronization of the fluorescein bolus injection and the angiogram acquisition. Photographs were taken with a fluorescence fundus camera at 1-10, 30, 60, 90, 180, and 300 sec after Diofluor 10% administration. The leakiness of CNV was assessed by two independent readers masked to the treatment.
# [2] = system: choroidal neovascularization (CNV); assay: Laser-induced CNV model, histological evaluation (CNV area, CD31-positive cell count); type: in vivo, Long Evans rats
# Procedure: as §1
# as §2, with “A 30-gauge needle connected to a 10-μL Hamilton syringe that contained 5 μL carboxymethylcellulose (CMC)-based Rapamycin suspension (0.5, 5, 10 or 40 mg/mL) or CMC vehicle alone was inserted 1 mm posterior to the corneoscleral limbus.” left out
# Eyes were enucleated and chorioretinal tissues that contained the CNV lesions prepared and fixed for about 18 hours in formic acid alcohol, and then replaced with 70% alcohol until the specimen was processed to wax by a standard method. Slides were stained with mouse anti rat CD31 (Chemicon, UK) by a standard immunohistochemistry protocol. This briefly consisted of removal of endogenous peroxidase enzymes with methanol and hydrogen peroxide, primary antibody as above, and the secondary donkey antibody anti mouse conjugated to biotin. Streptavidin ABC and Vector VIP substrate (Vector labs, Burlingame Calif.) were further added. Haematoxylin was used as a counterstain. Representative images before and after the center of each CNV lesion were taken using the 20× objective of an Olympus BX61 microscope fitted with a Spot RT colour camera (Diagnostic instruments, MI USA). Each image was applied to the standard image analysis macro in the software Image pro to identify the mean of lesion area for each CNV and the mean of CD31 positive cell counts (i.e. endothelial cells) within the CNV lesion area. All measurements were generated by two independent readers masked to the treatments. The data was analyzed in Excel and GraphPad Prism. The 80% correlation found between readers was deemed acceptable.
# [3] = system: Ser235/236 phosphorylation of S6 ribosomal protein (downstream target of mTOR); assay: Pharmacodynamic evaluation: S6 phosphorylation in chorioretinal tissues by western blot; type: in vivo, rat
# Procedure: as §2
# Upon euthanasia of the animal, the eyes were cut along the equator, separating the anterior and posterior segments. The vitreous was removed and the remaining back of eye (with intact retina, choroid and sclera) was placed in a labeled Nalgene Cryotube, immediately immersed in liquid nitrogen, and stored at −80° C. until ready to use. Upon lysis, tubes containing tissue were brought to room temperature to thaw. […] Protein concentration of each sample was determined using the Pierce BCA Protein Determination Kit (Pierce, CAT #: 23225) and BSA as a standard. Samples were analyzed by SDS-PAGE, followed by western blotting. […] Bound antibodies were detected using ECL or ECL plus Western Blotting Reagents. Densitometric evaluation was performed on blots scanned by Bio-Rad Multi-Analyst Software, and analyzed in MS Excel and GraphPad Prism.
# Rapamycin inhibits mTOR activity, which then down-regulates Ser235/236 phosphorylation of the downstream target of mTOR, the S6 ribosomal protein. In order to evaluate the pharmacodynamic response of intravitreally administered rapamycin in the eye, the serine phosphorylation of S6 protein extracted from chorioretinal tissues was analyzed by western blot, and standardized by the total amount of S6 protein. […]
# [4] = system: Human umbilical endothelial cells; assay: VEGF-activated endothelial cell proliferation, [3H]-thymidine incorporation; type: cell-based; conditions: [3H]-thymidine incorporation after 48 hours
# Procedure: (§3) Targeted tissue concentrations were estimated from in vitro experiments assessing the inhibitory effects of rapamycin on endothelial cell proliferation and cytokine release from immune cells. Human umbilical endothelial cells were activated with Vascular Endothelial Growth Factor (VEGF) and incubated with various concentrations of rapamycin. Cell proliferation was evaluated by quantifying [3}H-thymidine incorporation after 48 hours. […] The IC50 for the release of TNFalpha from Lipopolysaccharide and IFNgamma treated THP-1 cells (monocytic cell line) was ˜1 nM and the IC50 for the release of IFNgamma from human peripheral blood T cells stimulated with phytohemagglutanin was ˜2 nM.
# [5] = system: THP-1 cells (monocytic cell line); assay: TNFalpha release from Lipopolysaccharide and IFNgamma treated THP-1 cells; type: cell-based; conditions: Homo sapiens
# Procedure: as §3
# [6] = system: human peripheral blood T cells; assay: IFNgamma release from phytohemagglutanin-stimulated T cells; type: cell-based; conditions: T-cell, T cells stimulated with phytohemagglutanin
# Procedure: as §3
IC50 [5],IC50 [6],SMILES,response in the rat model of laser-induced CNV ([1]; 5 μg intravitreally injected),incidence of developing leaky CNV 2 weeks after laser photocoagulation ([1]; single intravitreal injection of 0.5 μg rapamycin in CMC),incidence of developing leaky CNV 2 weeks after laser photocoagulation ([1]; single intravitreal injection of 5 μg rapamycin in CMC),incidence of developing leaky CNV 2 weeks after laser photocoagulation ([1]; single intravitreal injection of 50 μg rapamycin in CMC),reduction in CNV area compared to the vehicle group ([2]; 0.5 μg intravitreal),reduction in CNV area compared to the vehicle group ([2]; 5 μg intravitreal),reduction in CNV area compared to the vehicle group ([2]; 50 μg intravitreal),"overall reduction in the number of endothelial cells within the CNV area compared to the vehicle group ([2]; 50 μg, 5 μg and 0.5 μg intravitreal, overall)","level of phosphorylated Ser235/236 on S6 ribosomal protein, standardized by total S6 ([3]; chorioretinal tissues, day 1, 3 and 7 post-dosing, vs untreated or vehicle-injected eyes, FIG. 10)","onset of inhibitory effect on S6 phosphorylation ([3]; intravitreal, rat)","duration of inhibitory effect on S6 phosphorylation ([3]; post-dosing, longest follow-up timepoint)",IC50 [4],"incidence of leaky CNV at the 14-day follow-up ([1]; intravitreal dose of 200 μg, positive control)","inhibition of CNV area ([2]; TA, intravitreal 200 μg)","inhibition of endothelial cell count ([2]; TA, intravitreal 200 μg)"
~1 nM,~2 nM,"CO[C@H]1C[C@@H]2CC[C@@H](C)[C@@](O)(O2)C(=O)C(=O)N2CCCC[C@H]2C(=O)O[C@H]([C@H](C)C[C@@H]2CC[C@@H](O)[C@H](OC)C2)CC(=O)[C@H](C)/C=C(\C)[C@@H](O)[C@@H](OC)C(=O)[C@H](C)C[C@H](C)/C=C/C=C/C=C/1C [rapamycin, Rapamycin]",nearly a complete response,65%,5%,2%,15%,55%,50%,50-60%,significantly reduced,≤ 24 h,7 days,69 nM,,,
,,CC1(C)O[C@@H]2C[C@H]3[C@@H]4CCC5=CC(=O)C=C[C@]5(C)[C@@]4(F)[C@@H](O)C[C@]3(C)[C@]2(C(=O)CO)O1 [triamcinolone acetonide],,,,,,,,,,,,,10%,approximately 50%,~60%

# Source: patent publication US8313763B2, “Sustained delivery formulations of rapamycin compounds” (Tolmar Therapeutics, Inc., priority 2004, dated 2012)
